Assay [1] has as its system SKMEL-57 melanoma cell line. As to the kind of experiment: Anti-proliferative effect of small molecules, MTS assay. Particulars: SKMEL-57, vemurafenib sensitive. It counts as cell-based. The protocol:
(§1) The anti-proliferative effect of small molecules in melanoma cell lines was determined with V600E BRAF inhibitor, vemurafenib (PLX-4032, 51267, Selleck) and MEK inhibitor, selumetinib (AZD-6244, S1008, Selleck). For each cell line optimal growth conditions were determined prior to the experiment. Cells were plated in a 96-well plate at 3000 cells per well (100 uL) and were grown at 37 C, 5% CO2. Small molecule mix (50 uL per well) was made for each concentration in medium. Cells were treated in triplicate 24 hours after plating. After 72 hours medium was replaced and viability was measured with the MTS assay (Promega) according to manufacturer's instructions. Cell viability inhibition is normalized against loading control (0.1% DMSO) and GraphPad Prism was used to fit the curve and calculate GI50 values.
A375 cells were obtained from the Hubrecht Institute (Utrecht, The Netherlands); SKMEL-28, A2058 and RPMI-7951 were from the ATCC; SKMEL-57 was a gift from Dr. Patricia Groenen (Radboud University Nijmegen Medical Centre, The Netherlands); for cell line characteristics of M249, M249-AR4, M233 and M376 see (Atefi et al. 2011). A375-R, with in vitro acquired resistance to vemurafenib, was established in our lab by clonal selection of cells continually exposed to 1 μM vemurafenib. A375, A375-R, SKMEL-28, A2058 and SKMEL-57 were grown in DMEM GlutaMAX™-I (Gibco®), all other cell lines in RPMI-1640 (Gibco®). Media was supplemented with 10% FBS (Sigma), and cells were maintained in a humidified 37° C. incubator (Thermo Scientific) with 5% CO2. Vemurafenib (PLX4032; Selleck Chemicals) was diluted in DMSO to a stock concentration of 10 mM.

The next assay deals with M376 melanoma cell line. The following applies: M376; value marked with footnote 1) Atefi M. et al.; cited from earlier work.
The test system of another assay is M233 melanoma cell line. The following applies: M233; value marked with footnote 1) Atefi M. et al.; cited from earlier work.
In assay [2] the test system is A375Hu melanoma cell line. Nature of the assay: Anti-proliferative effect of small molecules, MTS assay. Particulars: Homo sapiens, A-375, 72 h, A375Hu (A375), vemurafenib sensitive. Format: cell-based. On the procedure:
as §1

Assay [3] relates to RPMI-7951 melanoma cell line. The assay is described as above. Particulars: Homo sapiens; RPMI-7951, intrinsic resistance; 72 hours, MTS. Format: cell-based. On the procedure: as §1
A further assay concerns M249 melanoma cell line. The description is as above. Format: cell-based. Particulars: M249, 72 h, M249, vemurafenib sensitive. On the procedure: as §1
The test system of assay [4] is M249-R4 melanoma cell line. The assay is described as above. The following applies: M249-R4 (M249-AR4), in vitro acquired resistance, 72 hours. It counts as cell-based. On the procedure: as §1
In a further assay the test system is A2058 melanoma cell line. Described as above. It counts as cell-based. The following applies: Homo sapiens, A2058, intrinsic resistance, 72 hours. On the procedure:
as §1

Assay [5] deals with A375Hu-R1 (vemurafenib resistant clone of A375Hu). The assay is described as above. It counts as cell-based. Particulars: Homo sapiens, A375Hu-R1 (A375-R), in vitro acquired resistance, 72 hours. On the procedure: as §1
The A375Hu melanoma cell line was used to make a vemurafenib (PLX-4032) resistant sub line. A375Hu cells were plated at low density in 96-well plates and exposed to 1 uM PLX-4032. Cell growth was monitored until clonal growth was observed. Wells with clonal growth (approximately 5%) were replated in a 96-well plate and exposed to 1 uM PLX-4032. The 10 best growing clones were replated in 6-well plates in 1 uM PLX-4032 and the three best growing clones were used for further culturing. Clone number 1 (A375Hu-R1) grew best with 1 uM PLX-4032 and was chosen for additional experiments.

The structures appear in SMILES notation.

As to `Cn1cnc2c(F)c(Nc3ccc(Br)cc3Cl)c(C(=O)NOCCO)cc21` [Selumetinib, 6-(4-bromo-2-chlorophenylamino)-7-fluoro-N-(2-hydroxyethoxy)-3-methyl-3H-benzo[d]imidazole-5-carboxamide], the GI50 is 0.7 µM in [1]; 1 µM in the assay with M376 melanoma cell line; above 10 µM with M233 melanoma cell line; 0.05 µM in assay [2]; above 10 µM in assay [3]; 0.1 µM in the assay on M249 melanoma cell line. In addition, the GI50 in assay [4] is 2.91 µM; with A2058 melanoma cell line it was above 10 µM; in assay [5], above 10 µM.

The record behind these values is patent US10201556B2, “Combination for use in treating diseases or conditions associated with melanoma, or treating diseases or conditions associated with activated B-raf pathway” (InteRNA Technologies B.V., priority 2012, dated 2019).
